Experimental data reported in patent US20240407993A1, “PEPTIDE HAVING ANTI-AGING ACTIVITY, AND USE THEREOF” (CAREGEN CO., LTD., priority 2021, published 2024).

What was measured:
Elastin = Elastin gene expression by RT-PCR in fibroblasts; assay type: cell-based, mouse; settings: NIH3T3 cells, peptide 1, 10, 50 μM, 24 hours; FIGS. 1A, 1D
Procedure: First, NIH3T3 cells (mouse fibroblast cell line) were seeded in a 6-well plate at a cell density of 3×10^5 cell/well, and then the cells were cultured in DMEM medium containing 10% fetal bovine serum (FBS) for 24 hours. The cultured cells were washed once with serum free DMEM medium, and the peptide of the present invention was mixed in 1 mL of the serum free DMEM medium at each of concentrations of 1, 10, and 50 μM, and dispensed into the cells. A positive control (PC) was treated with 5 ng/ml of TGF-β1 instead of the above peptide. The cells were cultured in a CO2 incubator at 37° C. for 24 hours.
The cultured cells were washed twice with PBS, and RNA was extracted from the cells using easy blue (iNtRON, Cat. No.: 17061, Korea). The amount of RNA extracted was quantified, 1,000 ng of RNA was added per tube, and RT reaction was performed using a kit (enzynomics, Cat. No.: PT200, Korea). RT-PCR was performed using a PCR kit (enzynomics, Cat. No.: […], Korea). The sequences of the primers of collagen, fibronectin, and elastin used in RT-PCR and the sequence of the primer of GAPDH used to compare the total RNA amount of each treatment group are shown in [Table 2].

hyaluronic acid = test: Hyaluronic acid secretion (HA ELISA) in keratinocytes; assay type: cell-based, human; settings: HaCaT cells, peptide 1, 10, 50 μM, 24 hours; FIG. 2
Procedure: First, HaCaT cells (human keratinocyte cell line) were seeded in a 48-well plate at a cell density of 1×10^5 cell/well, and then the cells were cultured in DMEM medium containing 10% fetal bovine serum (FBS) for 24 hours. The cultured cells were washed once with serum free DMEM medium, and the peptide of the present invention was mixed in 2 mL of the serum free DMEM medium at each of concentrations of 1, 10, and 50 μM, and dispensed into three wells by 500 μL per condition. A positive control (PC) was treated with 100 nM of EGF instead of the above peptide. The cells were cultured in a CO2 incubator at 37° C. for 24 hours.
The medium of the cultured HaCaT cells was centrifuged to settle a suspended matter, and a supernatant was transferred to an e-tube and used to perform HA ELISA (ECHELON biosciences, Cat No.: K-1200, USA).

SIRT1 = SIRT1 mRNA level decreased by UV irradiation, RT-PCR in keratinocytes; assay type: cell-based, human; settings: HaCaT cells, 20 mJ/cm^2 UVB, peptide 1, 10, 50 μM, 4 hours after irradiation; FIGS. 7A, 7B
Procedure: The expression of genes related to aging is inhibited when irradiated with UV.
(§1) First, HaCaT cells were seeded in a 6-well plate at a cell density of 5×10^5 cell/well, and then the cells were cultured in DMEM medium containing 10% fetal bovine serum (FBS) for 24 hours. The cultured cells were washed once with serum free DMEM medium, and then the peptide of the present invention was mixed in 1 mL of the serum free DMEM medium at each of concentrations of 1, 10, and 50 μM, and dispensed into the cells. A positive control (PC) was treated with 2.5 mM of N-Acetylcysteine (NaC) instead of the above peptide.
The cells were cultured in a CO2 incubator at 37° C. for 1 hour. The medium of the cultured cells was transferred to a tube (e-tube), 1 ml of PBS was added, and irradiation was performed with 20 mJ/cm^2 of UVB using a UV irradiator (VILBER LOURMAT, Cat No.: 3102-BSU, France). After removing PBS, 900 μL of the medium transferred to the tube was added, and culture was performed in a CO2 incubator at 37° C. for 4 hours. The cultured cells were washed twice with PBS, and then RNA was extracted from the cells using easy blue (iNtRON, Cat. No.: 17061, Korea). The extracted RNA was subjected to RT reaction using a kit (enzynomics, Cat. No.: RT200, Korea). Thereafter, RT-PCR was performed using a PCR kit (enzynomics, Cat. No.: R581T, Korea). […]

MMP-1 = MMP-1 protein expression increased by UV irradiation, western blot in keratinocytes; assay type: cell-based, human; settings: HaCaT cells, 15 mJ/cm^2 UVB, peptide 1, 10, 50 μM, 24 hours after irradiation; FIG. 6B
Procedure: The expression of MMP-1 encoding proteins related to collagen degradation increases by ultraviolet irradiation. Therefore, it was confirmed whether the expression of the MMP-1 protein was inhibited again and the cell aging phenomenon was inhibited when treated with the peptide of the present invention.
as §1, with “First, NIH3T3 cells and HaCaT cells” for “First, HaCaT cells”, “5×10^5 cell/well, respectively, and then” for “5×10^5 cell/well, and then”, “medium, and the peptide” for “medium, and then the peptide”
The cells were cultured in a CO2 incubator at 37° C. for 1 hour. The medium of the cultured cells was transferred to a tube (e-tube), 1 ml of PBS was added, and then the NIH3T3 cells were irradiated with 6 J/cm^2 of UVA and the HaCaT cells were irradiated with 15 mJ/cm^2 of UVB using a UV irradiator (VILBER LOURMAT, Cat No.: 3102-BSU, France). After removing PBS, 900 μL of the medium transferred to the tube was added, and culture was performed in a CO2 incubator at 37° C. for 24 hours. […]

## LCACCLHNCNECQ
Elastin
  expression of the elastin gene: gradually increased as a concentration of the peptide increased
Hyaluronic acid
  secretion of hyaluronic acid protein: gradually increased as the concentration of the peptide increased
SIRT1
  mRNA level of SIRT1 decreased by UV irradiation: increased again
MMP-1
  expression of MMP-1 increased by UV irradiation: inhibited
